Reference: the supplement of paper PMC11451515

Experiments:
Conditions in all cases: 48 h
[1] = tested on: SEM cells; experiment: AUC of viability dose-response curve (% viability x log10 dose units); higher = less sensitive
In short: (§1)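 Over 48 h at 37°C, leukemia cells in 1536-well plates (500 or 1000 cells/well), adapted to each medium, received library compounds in DMSO at 11 threefold doses from 47 μM to 0.79 nM. CellTiter-Glo One luminescence, normalised per plate to DMSO and cell-free wells, was fitted by a four-parameter log-logistic function of log10 dose. The area under the curve was then integrated by trapezoidal rule, after scaling curves above full viability and removing those that failed quality control.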

[2] = tested on: NOMO1; experiment: as above
In short: as §1

[3] = tested on: P12-Ichikawa; experiment: as above
In short: as §1

[4] = tested on: SEM cells; experiment: cell viability relative to DMSO control; higher = less cytotoxic
In short: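 Viability was expressed as a per-plate percentage of DMSO wells, with cell-free wells as background. Leukemia cells (NOMO1 or SEM at 500 cells/well, P12-Ichikawa at 1000 cells/well) were adapted for at least four passages in each medium and seeded in 1536-well plates (5 μl). Library compounds in DMSO were pin-dosed over an 11-point threefold series from 47 μM to 0.79 nM, and CellTiter-Glo One luminescence was read after 48 h at 37°C.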

[5] = RPMI 5 mM glucose + 10% dialyzed FBS

SMILES | AUC of viability dose-response curve ([1]; HPLM + 10% dialyzed FBS) | AUC of viability dose-response curve ([1]; RPMI 5 mM glucose + 10% FBS) | AUC of viability dose-response curve [1, 5] | AUC of viability dose-response curve ([2]; HPLM + 10% dialyzed FBS) | AUC of viability dose-response curve ([2]; RPMI 5 mM glucose + 10% FBS) | AUC of viability dose-response curve [2, 5] | AUC of viability dose-response curve ([3]; HPLM + 10% dialyzed FBS) | AUC of viability dose-response curve ([3]; RPMI 5 mM glucose + 10% FBS) | AUC of viability dose-response curve [3, 5] | cell viability ([4]; RPMI 5 mM glucose + 10% FBS, 0.000781 µM) | cell viability ([4]; RPMI 5 mM glucose + 10% FBS, 0.00234 µM) | cell viability ([4]; RPMI 5 mM glucose + 10% FBS, 0.00702 µM) | cell viability ([4]; RPMI 5 mM glucose + 10% FBS, 0.0211 µM) | cell viability ([4]; RPMI 5 mM glucose + 10% FBS, 0.0632 µM) | cell viability ([4]; RPMI 5 mM glucose + 10% FBS, 0.19 µM) | cell viability ([4]; RPMI 5 mM glucose + 10% FBS, 0.569 µM) | cell viability ([4]; RPMI 5 mM glucose + 10% FBS, 1.71 µM) | cell viability ([4]; RPMI 5 mM glucose + 10% FBS, 5.12 µM) | cell viability ([4]; RPMI 5 mM glucose + 10% FBS, 15.4 µM) | cell viability ([4]; RPMI 5 mM glucose + 10% FBS, 46.1 µM) | cell viability ([4]; RPMI 5 mM glucose + 10% dialyzed FBS, 0.000781 µM) | cell viability ([4]; RPMI 5 mM glucose + 10% dialyzed FBS, 0.00234 µM) | cell viability ([4]; RPMI 5 mM glucose + 10% dialyzed FBS, 0.00702 µM) | cell viability ([4]; RPMI 5 mM glucose + 10% dialyzed FBS, 0.0211 µM) | cell viability ([4]; RPMI 5 mM glucose + 10% dialyzed FBS, 0.0632 µM) | cell viability ([4]; RPMI 5 mM glucose + 10% dialyzed FBS, 0.19 µM) | cell viability ([4]; RPMI 5 mM glucose + 10% dialyzed FBS, 0.569 µM) | cell viability ([4]; RPMI 5 mM glucose + 10% dialyzed FBS, 1.71 µM) | cell viability ([4]; RPMI 5 mM glucose + 10% dialyzed FBS, 5.12 µM) | cell viability ([4]; RPMI 5 mM glucose + 10% dialyzed FBS, 15.4 µM) | cell viability ([4]; RPMI 5 mM glucose + 10% dialyzed FBS, 46.1 µM)
COC1=CC(c2cc3ccccc3[nH]2)=N/C1=C/c1[nH]c(C)cc1C | 436 | 420 | 391 | 463 | 470 | 448 | 455 | 450 | 452 |  |  |  |  |  |  |  |  |  |  |  |  |  |  |  |  |  |  |  |  |  | 
N=C1S/C(=C\c2ccc(-c3ccc4c(c3)C(=O)NC4=O)o2)C(=O)N1c1ccc(Br)cc1 | 453 | 365 | 458 | 444 | 464 | 459 | 452 | 443 | 448 |  |  |  |  |  |  |  |  |  |  |  |  |  |  |  |  |  |  |  |  |  | 
O=C(Nc1nc2cccc(-c3ccc(CN4CC[S+](=O)([O-])CC4)cc3)n2n1)C1CC1 | 441 | 446 | 432 | 440 | 449 | 444 | 455 | 454 | 455 | 111% | 133% | 120% | 124% | 136% | 146% | 130% | 121% | 103% | 107% | 21.3% | 120% | 125% | 109% | 126% | 130% | 152% | 133% | 124% | 90.1% | 94.6% | 31.1%
